Test results: the supplement of paper PMC10307832

What was measured:
Experiment in all cases: relative viability (nuclei count vs DMSO), 5 days (fraction); higher = more cells survive
ABC-1 = system: ABC-1
Outline: (§1)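 A single step with final 0.05% Triton X-100, 1% formaldehyde and 1 ug/ml Hoechst fixed the cells and stained nuclei 5 days after treatment. Lung cancer cell lines in 1536-well plates had been treated by pin tool the day after seeding with one drug alone or a fixed anchor-drug dose plus five library-drug doses (not always all listed) in √10 steps, and nuclei were counted on 4× images. Relative viability is the ratio of nuclei in treated wells to nuclei in vehicle wells, taken as the median of duplicate plates.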

CAL-12T = system: CAL-12T
Outline: as §1

COR-L 105 = system: COR-L 105
Outline: as §1

ChaGo-K-1 = system: ChaGo-K-1
Outline: as §1

EMC-BAC-2 = system: EMC-BAC-2
Outline: as §1

EPLC-272H = system: EPLC-272H
Outline: as §1

HCC-15 = system: HCC-15
Outline: as §1

HOP-62 = system: HOP-62
Outline: as §1

LXF-289 = system: LXF-289
Outline: as §1

NCI-H1666 = system: NCI-H1666
Outline: as §1

NCI-H1755 = system: NCI-H1755
Outline: as §1

NCI-H1915 = system: NCI-H1915
Outline: as §1

NCI-H1975 = system: NCI-H1975
Outline: as §1

NCI-H2023 = system: NCI-H2023
Outline: as §1

NCI-H2085 = system: NCI-H2085
Outline: as §1

NCI-H2126 = system: NCI-H2126
Outline: as §1

NCI-H3122 = system: NCI-H3122
Outline: as §1

NCI-H322M = system: NCI-H322M
Outline: as §1

NCI-H358 = system: NCI-H358
Outline: as §1

NCI-H441 = system: NCI-H441
Outline: as §1

UMC-11 = system: UMC-11
Outline: as §1

## COc1nc(C)cnc1NS(=O)(=O)c1cccnc1-c1ccc(-c2nnco2)cc1 [Zibotentan] + CCNC(=O)c1noc(-c2cc(C(C)C)c(O)cc2O)c1-c1ccc(CN2CCOCC2)cc1 [Luminespib] (partner 0.01 µM)
ABC-1; first compound 0.08 µM
  relative viability: 0.48
ABC-1; first compound 0.8 µM
  relative viability: 0.694
ABC-1; first compound 2.53 µM
  relative viability: 0.696
CAL-12T; first compound 0.08 µM
  relative viability: 0.598
CAL-12T; first compound 0.253 µM
  relative viability: 0.123
CAL-12T; first compound 0.8 µM
  relative viability: 0.415
CAL-12T; first compound 2.53 µM
  relative viability: 0.418
COR-L 105; first compound 0.08 µM
  relative viability: 0.938
COR-L 105; first compound 0.253 µM
  relative viability: 0.693
COR-L 105; first compound 0.8 µM
  relative viability: 0.891
COR-L 105; first compound 2.53 µM
  relative viability: 0.74
ChaGo-K-1; first compound 0.08 µM
  relative viability: 0.568
ChaGo-K-1; first compound 0.253 µM
  relative viability: 0.683
ChaGo-K-1; first compound 0.8 µM
  relative viability: 0.588
ChaGo-K-1; first compound 2.53 µM
  relative viability: 0.503
EMC-BAC-2; first compound 0.08 µM
  relative viability: 1.3
EMC-BAC-2; first compound 0.8 µM
  relative viability: 1.13
EMC-BAC-2; first compound 2.53 µM
  relative viability: 1.22
EPLC-272H; first compound 0.08 µM
  relative viability: 0.234
EPLC-272H; first compound 0.253 µM
  relative viability: 0.376
EPLC-272H; first compound 0.8 µM
  relative viability: 0.272
EPLC-272H; first compound 2.53 µM
  relative viability: 0.254
HCC-15; first compound 0.08 µM
  relative viability: 0.244
HCC-15; first compound 0.253 µM
  relative viability: 0.114
HCC-15; first compound 0.8 µM
  relative viability: 0.4
HCC-15; first compound 2.53 µM
  relative viability: 0.365
HOP-62; first compound 0.08 µM
  relative viability: 0.911
HOP-62; first compound 0.253 µM
  relative viability: 0.869
HOP-62; first compound 0.8 µM
  relative viability: 0.906
HOP-62; first compound 2.53 µM
  relative viability: 0.956
LXF-289; first compound 0.08 µM
  relative viability: 0.657
LXF-289; first compound 0.253 µM
  relative viability: 0.683
LXF-289; first compound 0.8 µM
  relative viability: 0.627
LXF-289; first compound 2.53 µM
  relative viability: 0.756
NCI-H1666; first compound 0.08 µM
  relative viability: 0.96
NCI-H1666; first compound 0.253 µM
  relative viability: 0.905
NCI-H1666; first compound 0.8 µM
  relative viability: 1.02
NCI-H1666; first compound 2.53 µM
  relative viability: 1.05
NCI-H1755; first compound 0.08 µM
  relative viability: 0.338
NCI-H1755; first compound 0.253 µM
  relative viability: 0.558
NCI-H1755; first compound 0.8 µM
  relative viability: 0.489
NCI-H1755; first compound 2.53 µM
  relative viability: 0.252
NCI-H1915; first compound 0.08 µM
  relative viability: 0.939
NCI-H1915; first compound 0.253 µM
  relative viability: 0.873
NCI-H1915; first compound 0.8 µM
  relative viability: 0.754
NCI-H1915; first compound 2.53 µM
  relative viability: 0.809
NCI-H1975; first compound 0.08 µM
  relative viability: 0.305
NCI-H1975; first compound 0.253 µM
  relative viability: 0.0756
NCI-H1975; first compound 0.8 µM
  relative viability: 0.198
NCI-H1975; first compound 2.53 µM
  relative viability: 0.218
NCI-H2023; first compound 0.08 µM
  relative viability: 0.856
NCI-H2023; first compound 0.253 µM
  relative viability: 0.455
NCI-H2023; first compound 0.8 µM
  relative viability: 0.645
NCI-H2023; first compound 2.53 µM
  relative viability: 0.799
NCI-H2085; first compound 0.08 µM
  relative viability: 0.386
NCI-H2085; first compound 0.253 µM
  relative viability: 0.423
NCI-H2085; first compound 0.8 µM
  relative viability: 0.42
NCI-H2085; first compound 2.53 µM
  relative viability: 0.463
NCI-H2126; first compound 0.08 µM
  relative viability: 0.978
NCI-H2126; first compound 0.8 µM
  relative viability: 0.896
NCI-H2126; first compound 2.53 µM
  relative viability: 0.919
NCI-H3122; first compound 0.08 µM
  relative viability: 0.0904
NCI-H3122; first compound 0.253 µM
  relative viability: 0.112
NCI-H3122; first compound 0.8 µM
  relative viability: 0.0537
NCI-H3122; first compound 2.53 µM
  relative viability: 0.104
NCI-H322M; first compound 0.08 µM
  relative viability: 0.876
NCI-H322M; first compound 0.253 µM
  relative viability: 0.474
NCI-H322M; first compound 0.8 µM
  relative viability: 0.897
NCI-H322M; first compound 2.53 µM
  relative viability: 0.918
NCI-H358; first compound 0.08 µM
  relative viability: 0.302
NCI-H358; first compound 0.8 µM
  relative viability: 0.435
NCI-H358; first compound 2.53 µM
  relative viability: 0.555
NCI-H441; first compound 0.08 µM
  relative viability: 0.41
NCI-H441; first compound 0.253 µM
  relative viability: 0.255
NCI-H441; first compound 0.8 µM
  relative viability: 0.345
NCI-H441; first compound 2.53 µM
  relative viability: 0.368
UMC-11; first compound 0.08 µM
  relative viability: 1.1
UMC-11; first compound 0.253 µM
  relative viability: 0.974
UMC-11; first compound 0.8 µM
  relative viability: 0.978
UMC-11; first compound 2.53 µM
  relative viability: 0.997
